# Experimental data from patent publication US20250122218A1, “MODULATORS OF CYSTIC FIBROSIS TRANSMEMBRANE CONDUCTANCE REGULATOR” (Vertex Pharmaceuticals Incorporated, priority 2022, published 2025).
# pEC50: −log10 of the molar value.
# Biological target: T1, CFTR in F508del/MF-HBE cells (Homo sapiens, UniProt P13569, DEL508-508)
# T1 construct: human bronchial epithelial (HBE) cells derived from CF subjects heterozygous for F508del and a minimal function CFTR mutation; endogenous in cells; host or cells: primary human bronchial epithelial cells from CF subjects (F508del/MF-HBE)
# Experiment: Ussing chamber assay of CFTR-mediated short-circuit currents (identification of potentiator compounds)
# Format: cell-based
# Conditions: potentiator incubated 18-24 hours at 37° C. in combination with 10 μM corrector, in the presence of 20% human serum, CFTR-mediated ISC
# In short: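 Short-circuit current was measured in Ussing chambers at 37° C, Vhold 0 mV, 30 μM apical amiloride. CFTR current was defined as the forskolin (20 μM) response relative to the current remaining after BPO/GlyH-101/inhibitor 172 (20 μM each). Before recording, cells had 18-24 h exposure to test potentiators with 10 μM corrector compound in 20% human serum.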
# T1 sequence (P13569 with tags, fused parts or gaps DEL508-508): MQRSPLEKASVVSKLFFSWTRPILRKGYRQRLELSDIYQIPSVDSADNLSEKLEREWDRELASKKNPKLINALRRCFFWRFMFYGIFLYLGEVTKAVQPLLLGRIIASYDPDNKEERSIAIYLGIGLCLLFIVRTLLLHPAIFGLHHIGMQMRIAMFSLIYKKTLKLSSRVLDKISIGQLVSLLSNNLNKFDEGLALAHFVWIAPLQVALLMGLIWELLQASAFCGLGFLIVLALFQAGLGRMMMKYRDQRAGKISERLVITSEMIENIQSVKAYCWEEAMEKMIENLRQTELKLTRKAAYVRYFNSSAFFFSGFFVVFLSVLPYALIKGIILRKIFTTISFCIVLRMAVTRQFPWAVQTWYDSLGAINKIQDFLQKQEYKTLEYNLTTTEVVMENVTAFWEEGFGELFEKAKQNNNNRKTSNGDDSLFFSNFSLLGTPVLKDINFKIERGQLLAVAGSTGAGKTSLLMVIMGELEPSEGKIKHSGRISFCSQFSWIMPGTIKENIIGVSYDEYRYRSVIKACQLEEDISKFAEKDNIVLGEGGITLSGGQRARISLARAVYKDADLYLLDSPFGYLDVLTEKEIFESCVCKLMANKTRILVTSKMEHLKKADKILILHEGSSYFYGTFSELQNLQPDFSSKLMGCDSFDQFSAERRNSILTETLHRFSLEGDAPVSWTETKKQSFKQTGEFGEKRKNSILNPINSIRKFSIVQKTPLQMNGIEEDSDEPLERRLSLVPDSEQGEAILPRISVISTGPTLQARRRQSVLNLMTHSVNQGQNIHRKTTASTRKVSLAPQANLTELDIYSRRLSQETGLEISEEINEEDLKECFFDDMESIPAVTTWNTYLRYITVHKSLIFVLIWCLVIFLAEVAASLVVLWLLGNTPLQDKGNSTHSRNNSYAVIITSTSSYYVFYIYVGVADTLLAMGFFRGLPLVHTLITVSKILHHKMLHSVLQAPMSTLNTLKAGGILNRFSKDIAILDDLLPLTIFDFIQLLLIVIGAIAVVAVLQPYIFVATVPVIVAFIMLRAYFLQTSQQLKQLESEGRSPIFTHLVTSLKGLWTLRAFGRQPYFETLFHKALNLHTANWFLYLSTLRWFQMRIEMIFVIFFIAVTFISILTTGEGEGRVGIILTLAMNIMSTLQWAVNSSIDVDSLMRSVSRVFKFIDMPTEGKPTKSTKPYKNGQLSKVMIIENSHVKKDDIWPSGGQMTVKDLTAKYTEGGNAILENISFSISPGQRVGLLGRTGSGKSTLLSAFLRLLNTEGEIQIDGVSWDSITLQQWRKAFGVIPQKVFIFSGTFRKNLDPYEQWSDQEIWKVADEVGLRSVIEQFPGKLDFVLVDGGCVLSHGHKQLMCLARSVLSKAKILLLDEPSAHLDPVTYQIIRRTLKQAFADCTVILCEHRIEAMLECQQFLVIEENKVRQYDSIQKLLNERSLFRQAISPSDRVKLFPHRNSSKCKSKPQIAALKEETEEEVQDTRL
row,Compound,pEC50
1,"Nc1cc(C(F)(F)F)c2nc1-c1nnc(o1)[C@@](O)(C(F)(F)F)CCCCCN(Cc1ccc(-c3ccccc3)cc1)C2=O [Compound 173, (6R)-17-amino-6-hydroxy-12-[(4-phenylphenyl)methyl]-6,15-bis (trifluoromethyl)-19-oxa-3,4,12,18-tetrazatricyclo [12.3.1.12,5] nonadeca-1(18),2,4,14,1 6-pentaen-13-one]",> 6.30
2,"Nc1cc(C(F)(F)F)c2nc1-c1nnc(o1)[C@@](O)(C(F)(F)F)CCCCCN(Cc1cc(Cl)cc(OC(F)(F)F)c1)C2=O [Compound 178, (6R)-17-amino-12-[[3-chloro-5-(trifluoromethoxy)phenyl]methyl]-6-hydroxy-6,15-bis (trifluoromethyl)-19-oxa-3,4,12,18-tetrazatricyclo [12.3.1.12,5] nonadeca-1(18),2,4,14,1 6-pentaen-13-one]",> 6.30
3,"Cc1cc(CN2CCCCC[C@](O)(C(F)(F)F)C3=NN=C(O3)c3nc(c(C(F)(F)F)cc3N)C2=O)cc(OC(F)(F)F)c1 [Compound 179, (6R)-17-amino-6-hydroxy-12-[[3-methyl-5-(trifluoromethoxy)phenyl]methyl]-6,15-bis (trifluoromethyl)-19-oxa-3,4,12,18-tetrazatricyclo [12.3.1.12,5] nonadeca-1(18),2,4,14,1 6-pentaen-13-one]",> 6.30
4,"Cc1c(CN2CCCCC[C@](O)(C(F)(F)F)C3=NN=C(O3)c3nc(c(C(F)(F)F)cc3N)C2=O)cccc1OC(F)(F)F [Compound 180, (6R)-17-amino-6-hydroxy-12-[[2-methyl-3-(trifluoromethoxy)phenyl]methyl]-6,15-bis(trifluoromethyl)-19-oxa-3,4,12,18-tetrazatricyclo [12.3.1.12,5] nonadeca-1(18),2,4,14,1 6-pentaen-13-one]",> 6.30
5,"Nc1cc(C(F)(F)F)c2nc1-c1nnc(o1)[C@@](O)(C(F)(F)F)CCCCCN(Cc1ccc(OCC(F)(F)F)cc1)C2=O [Compound 181, (6R)-17-amino-6-hydroxy-12-[[4-(2,2,2-trifluoroethoxy)phenyl]methyl]-6,15-bis (trifluoromethyl)-19-oxa-3,4,12,18-tetrazatricyclo [12.3.1.12,5] nonadeca-1(18),2,4,14,1 6-pentaen-13-one]",> 6.30
6,"Nc1cc(C(F)(F)F)c2nc1-c1nnc(o1)[C@@](O)(C(F)(F)F)CCCCCN(Cc1cccc(C(F)(F)F)c1)C2=O [Compound 182, (6R)-17-amino-6-hydroxy-6,15-bis (trifluoromethyl)-12-[[3-(trifluoromethyl)phenyl]methyl]-19-oxa-3,4,12,18-tetrazatricyclo [12.3.1.12,5] nonadeca-1(18),2,4,14,1 6-pentaen-13-one]",> 6.30
7,"C[C@H]1C[C@H](c2ccc(CN3CCCCC[C@](O)(C(F)(F)F)C4=NN=C(O4)c4nc(c(C(F)(F)F)cc4N)C3=O)cc2)C1 [Compound 183, (6R)-17-amino-6-hydroxy-12-({4-[trans-3-methylcyclobutyl]phenyl}methyl)-6,15-bis (trifluoromethyl)-19-oxa-3,4,12,18-tetraazatricyclo [12.3.1.12,5] nonadeca-1(18),2,4,14,1 6-pentaen-13-one]",> 6.30
8,"Nc1cc(C(F)(F)F)c2nc1-c1nnc(o1)[C@@](O)(C(F)(F)F)CCCCCN(Cc1cccc(N3CCCCC3)n1)C2=O [Compound 185, (6R)-17-amino-6-hydroxy-12-[[6-(1-piperidyl)-2-pyridyl]methyl]-6,15-bis (trifluoromethyl)-19-oxa-3,4,12,18-tetrazatricyclo [12.3.1.12,5] nonadeca-1(18),2,4,14,1 6-pentaen-13-one]",> 6.30
9,"Nc1cc(C(F)(F)F)c2nc1-c1nnc(o1)[C@@](O)(C(F)(F)F)CCCCCN(Cc1cccc(OCC(F)(F)F)c1)C2=O [Compound 186, (6R)-17-amino-6-hydroxy-12-[[3-(2,2,2-trifluoroethoxy)phenyl]methyl]-6,15-bis (trifluoromethyl)-19-oxa-3,4,12,18-tetrazatricyclo [12.3.1.12,5] nonadeca-1(18),2,4,14,1 6-pentaen-13-one]",> 6.30
10,"Nc1cc(C(F)(F)F)c2nc1-c1nnc(o1)[C@@](O)(C(F)(F)F)CCCCCN(Cc1ccc(N3CCCCC3)nc1)C2=O [Compound 187, (6R)-17-amino-6-hydroxy-12-[[6-(1-piperidyl)-3-pyridyl]methyl]-6,15-bis (trifluoromethyl)-19-oxa-3,4,12,18-tetrazatricyclo [12.3.1.12,5] nonadeca-1(18),2,4,14,1 6-pentaen-13-one]",> 6.30
11,"Nc1cc(C(F)(F)F)c2nc1-c1nnc(o1)[C@@](O)(C(F)(F)F)CCCCCN(C1CC3(C1)CN(C(=O)C1CC1)C3)C2=O [Compound 191, (6R)-17-amino-12-[2-(cyclopropanecarbonyl)-2-azaspiro[3.3]heptan-6-yl]-6-hydroxy-6,15-bis(trifluoromethyl)-19-oxa-3,4,12,18-tetrazatricyclo[12.3.1.12,5]nonadeca-1(18),2,4,14,16-pentaen-13-one]",< 6.00
12,"Nc1cc(C(F)(F)F)c2nc1-c1nnc(o1)[C@@](O)(C(F)(F)F)CCCCCN(Cc1ccc(C34CC(C3)C4)cc1)C2=O [Compound 195, (6R)-17-amino-12-[[4-(1-bicyclo[1.1.1]pentanyl)phenyl]methyl]-6-hydroxy-6,15-bis(trifluoromethyl)-19-oxa-3,4,12,18-tetrazatricyclo[12.3.1.12,5]nonadeca-1(18),2,4,14,16-pentaen-13-one]",> 6.30

# Continued, values first:
row,pEC50,Compound
1,> 6.30,"CC1(C)CCCC[C@](O)(C(F)(F)F)C2=NN=C(O2)c2nc(c(C(F)(F)F)cc2N)C(=O)N1 [Compound 174, (6R)-17-amino-6-hydroxy-11,11-dimethyl-6,15-bis (trifluoromethyl)-19-oxa-3,4,12,18-tetrazatricyclo [12.3.1.12,5] nonadeca-1(18),2,4,14,1 6-pentaen-13-one]"
2,> 6.30,"COc1ccc(CN2CCCCC[C@](O)(C(F)(F)F)C3=NN=C(O3)c3nc(c(C(F)(F)F)cc3N)C2=O)c(F)c1F [Compound 175, (6R)-17-amino-12-[(2,3-difluoro-4-methoxy-phenyl)methyl]-6-hydroxy-6,15-bis (trifluoromethyl)-19-oxa-3,4,12,18-tetrazatricyclo [12.3.1.12,5] nonadeca-1(18),2,4,14,1 6-pentaen-13-one]"
3,> 6.30,"COc1cc(F)cc(CN2CCCCC[C@](O)(C(F)(F)F)C3=NN=C(O3)c3nc(c(C(F)(F)F)cc3N)C2=O)c1 [Compound 176, (6R)-17-amino-12-[(3-fluoro-5-methoxy-phenyl)methyl]-6-hydroxy-6,5-bis (trifluoromethyl)-19-oxa-3,4,12,18-tetrazatricyclo [12.3.1.12,5] nonadeca-1(18),2,4,14,1 6-pentaen-13-one]"
4,> 6.30,"COc1ccc(CN2CCCCC[C@](O)(C(F)(F)F)C3=NN=C(O3)c3nc(c(C(F)(F)F)cc3N)C2=O)c(F)c1 [Compound 177, (6R)-17-amino-12-[(2-fluoro-4-methoxy-phenyl)methyl]-6-hydroxy-6,15-bis (trifluorom ethyl)-19-oxa-3,4,12,18-tetrazatricyclo [12.3.1.12,5] nonadeca-1(18),2,4,14,1 6-pentaen-13-one]"
5,> 6.30,"CC(C)(C)c1cccc(CN2CCCCC[C@](O)(C(F)(F)F)C3=NN=C(O3)c3nc(c(C(F)(F)F)cc3N)C2=O)n1 [Compound 184, (6R)-17-amino-12-[(6-tert-butyl-2-pyridyl)methyl]-6-hydroxy-6,15-bis (trifluoromethyl)-19-oxa-3,4,12,18-tetrazatricyclo [12.3.1.12,5] nonadeca-1(18),2,4,14,1 6-pentaen-13-one]"
6,> 6.30,"Nc1cc(C(F)(F)F)c2nc1-c1nnc(o1)[C@@](O)(C(F)(F)F)CCCCCNC2=O [Compound 188, (6R)-17-amino-6-hydroxy-6,15-bis(trifluoromethyl)-19-oxa-3,4,12,18-tetrazatricyclo[12.3.1.12,5]nonadeca-1(18),2,4,14,16-pentaen-13-one]"
7,< 6.00,"Nc1cc(C(F)(F)F)c2nc1-c1nnc(o1)[C@](O)(C(F)(F)F)CCCCCNC2=O [Compound 189, (6S)-17-amino-6-hydroxy-6,15-bis(trifluoromethyl)-19-oxa-3,4,12,18-tetrazatricyclo[12.3.1.12,5]nonadeca-1(18),2,4,14,16-pentaen-13-one]"
8,< 6.00,"CC(=O)N1CC2(CC(N3CCCCC[C@](O)(C(F)(F)F)C4=NN=C(O4)c4nc(c(C(F)(F)F)cc4N)C3=O)C2)C1 [Compound 190, (6R)-12-(2-acetyl-2-azaspiro[3.3]heptan-6-yl)-17-amino-6-hydroxy-6,15-bis(trifluoromethyl)-19-oxa-3,4,12,18-tetrazatricyclo[12.3.1.12,5]nonadeca-1(18),2,4,14,16-pentaen-13-one]"
9,< 6.00,"NC[C@H]1CC[C@H](N2CCCCC[C@](O)(C(F)(F)F)C3=NN=C(O3)c3nc(c(C(F)(F)F)cc3N)C2=O)CC1 [Compound 192, (6R)-17-amino-6-hydroxy-12-[trans-4-(aminomethyl)cyclohexyl]-6,15-bis(trifluoromethyl)-19-oxa-3,4,12,18-tetraazatricyclo[12.3.1.12,5]nonadeca-1(18),2,4,14,16-pentaen-13-one]"
10,> 6.30,"N#C[C@H]1CC[C@H](N2CCCCC[C@](O)(C(F)(F)F)C3=NN=C(O3)c3nc(c(C(F)(F)F)cc3N)C2=O)CC1 [Compound 193, trans-4-[(6R)-17-amino-6-hydroxy-13-oxo-6,15-bis(trifluoromethyl)-19-oxa-3,4,12,18-tetraazatricyclo[12.3.1.12,5]nonadeca-1(18),2,4,14,16-pentaen-12-yl]cyclohexane-1-carbonitrile]"
